Laboratory results reported in patent US9737525B2, “Small molecule activators of NRF2 pathway” (The General Hospital Corporation, priority 2013, dated 2017).
Structures can show the parent of a compound that is named as a salt.

Assays:
[1] = molecular target: human recombinant SIRT2 deacetylase (Homo sapiens (Human), UniProt Q8IXJ6); experiment: Sirtuin biochemical deacetylation assay, SIRT2
Protocol: Modulation of sirtuin activity by compounds was assessed using the Flour de Lys fluorescent biochemical assay in a 96-well format as described (Outeiro et al., 2007). The deacetylation reaction was performed at 37° C. for an hour in the presence of human recombinant enzymes: SIRT1 (BioMol-SE-239) 1 unit/per reaction, SIRT2 (BioMol-SE-251) 5 units/per reaction, or SIRT3 (BioMol-SE-270) 5 units/per reaction, compound of interest, standard buffer, 50 μM substrate, and 500 μM NAD^+ according to the manufacturer's protocol. […]

[2] = test system: NQO1; experiment: Quantitative NQO1 inducer bioassay in Hepa1c1c7 cells; format: cell-based, murine; settings: for EC (2-fold NQO1 activity): Mus musculus, Hepa-1c1c7, Table 3, Concentration which Doubles the specific activity of NQO1, read-out: NQD1 CD; for EC (2-fold NQO1 activity) / CD value (Concentration which Doubles the specific activity of NQO1): 48 hr exposure; for Effect of GSH pre-incubation on NQO1 inducer potency: 1 mM GSH at 37° C. for 30 min before cell treatment; for CD value (Concentration which Doubles the specific activity of NQO1): Hepa1c1c7 cells
Protocol: Cells grown in 96-well plates were exposed to serial dilutions of each compound for 48 hr, and the NQO1 enzyme activity was determined in cell lysates. Results are shown as average values of 8 replicate wells. The standard deviation in each case was less than 5%.
Next, using a quantitative NQO1 inducer bioassay in murine Hepa1c1c7 cells and the CD value (Concentration which Doubles the specific activity of NQO1) as a measure of potency (see Table 2), the activities of the MIND4 analogs were tested and ranked.
Inducer potency was quantified by use of the NQO1 bioassay in Hepa1c1c7 cells as described [Prochaska, 1988]. To examine the effect of GSH on inducer potency, compounds were incubated in cell culture medium containing 1 mM GSH at 37° C. for 30 min before cell treatment.

[3] = test system: NRF2-responsive proteins NQO1 and GCLM; experiment: Induction of NQO1 and GCLM proteins in differentiated ST14A cells (immunoblotting); format: cell-based, rat; settings: differentiated HD mutant and wild type ST14A cells, 24 hours
Protocol: (§1) To assess protein levels, cell extracts were prepared from cells washed with PBS and lysed with buffer containing 2% SDS, Complete EDTA-free Protease Inhibitor Cocktail (Roche) and 1 mM phenylmethylsulfonyl fluoride. To prepare brain extracts for analysis, frozen mouse cortical tissues were homogenized in PBS containing protease inhibitors with an Kontes Pellet Pestle (Kimble/Kontes). They were later sonicated and lysed overnight at 4° C. in 2× volume of lysis buffer containing 2% SDS and protease inhibitors. Protein concentrations in ST14A cell extracts and homogenized cortical tissues were evaluated using a BCA analysis kit and normalized. Samples were prepared in a SDS buffer containing DTT and separated on bis-acrylamide protein gels via electrophoresis and transferred onto a 0.2 μm PVDF membrane). Membranes were probed for NQO1 (Sigma N5288, 1:1,000), GCLM, (Abcam ab126704, 1:800), SIRT2 (Sigma S8447, 1:2,500), histone H3 (Cell Signaling 4499, 1:2,000), acetylated H3 (K56) (Millipore 04-1135, 1:500), TNFα (Abcam ab1793, 1:1,500), GADPH (Millipore MAB374, 1:10,000), actin (Sigma A2066, 1:1250), α-tubulin (Sigma T6074, 1:20,000), and acetylated α-tubulin (Sigma T6793, 1:2,500) overnight in 5% milk in PBST at 4° C. on a rocker. Membranes were thrice washed in PBST for 15 min on a shaker and incubated in either an anti-rabbit-HRP (Bio-Rad 170-5046, 1:10,000) or anti-mouse-HRP (Sigma A3682, 1:4,000) secondary solution as appropriate in 3% milk in PBST for 1 hr at room temperature on a rocker. After four washes of 15 min in PBST on a shaker, blots were visualized using SuperSignal West Pico Chemiluminescent Substrate (Pierce 34080) or SuperSignal West Dura Extended Duration Substrate (Thermo 34075) and exposed on Scientific Imaging Film (Kodak 864 6770).
Compound bioactivity was tested in the rat embryonic striatal cell lines ST14A, which stably express either a mutant expanded repeat (128Q) or wild type (26Q) 546 amino acid huntingtin (HTT) fragment (a generous gift of E. Cattaneo) (Ehrlich et al., 2001) ST14A cells were propagated at 33° C. in the presence of serum. To induce neuronal differentiation, cells were serum deprived and cultured at 37° C. in the presence of N2 supplement. Cells were treated with compounds concurrently with induction of neuronal differentiation for 24 hours, as described (Quinti et al., 2010).
The NRF2 activation properties of further MIND4 structural analogs with variable potencies of SIRT2 inhibition were tested as described previously (see Table 1) Changes in expression of the canonical NRF2-responsive proteins NQO1 and GCLM, the transcription of which was induced by MIND4, was selected as a readout of pathway activation. Protein levels of NQO1 and GCLM were examined by immunoblotting in compound treated mutant HD and wild-type ST14A cells. […] This hypothesis was tested using a second panel of MIND4 analogs (see Table 3).

[4] = test system: NRF2/KEAP1 in MEFs; experiment: NQO1 and NRF2 levels in mouse embryonic fibroblasts (MEFs), western blot; format: cell-based; settings: wild-type MEFs, 5 hr exposure
Protocol: Mouse embryonic fibroblasts (MEFs) from wild-type (WT), NRF2-knockout (NRF2-KO) or KEAP1-knockout (KEAP1-KO) mice, were cultured in plastic dishes (Invitrogen) coated for 30 min with 0.1% (w/v) gelatin before use. The cell culture medium was Iscoves Modified Dulbecco's Medium (with L-glutamine) supplemented with human recombinant epidermal growth factor (10 ng/mL), 1× insulin/transferrin/selenium, and 10% (v/v) heat-inactivated FBS, all from Invitrogen. Cells were maintained at 5% CO2 in air at 37° C. For experiments, cells (250,000 per well) were grown for 24 hr on 6-well plates, and then treated with solvent control (0.1% DMSO, v/v) or compounds for either 5 hr or 24 hr. For western blot analysis, cells were washed twice with ice-cold phosphate buffered saline (PBS) and lysed in 150 μl of RIPA buffer (50 mM Tris-Cl pH 7.5, 150 mM NaCl, 0.5% sodium deoxycholate, 1% NP-40, 0.1% SDS and 1 mM EDTA), containing 1 protease inhibitor cocktail tablet (Roche) per 10 ml of buffer. Cell debris were removed by centrifugation at 16,300×g for […] at 4° C., and protein concentrations were determined by the BCA assay (Thermo). Proteins were resolved by SDS/PAGE, transferred to immobilon-P membranes, and probed with specific antibodies against NQO1 (1:1000) or NRF2 (1:1000). Equal loading was confirmed by probing the blots with an antibody against β-actin (mouse monoclonal, 1:10000), from Sigma, Dorset, United Kingdom.
For nuclear-cytoplasmic separation, WT MEFs (500,000 per dish) were grown for 24 hr on 6-cm plates, and then treated with solvent control (0.1% DMSO, v/v) or 0.5 μM MIND4-17. At the end of each treatment time, cells were placed on ice and washed twice with ice-cold PBS and subsequently lysed in buffer A [10 mM KCl, 5 mM MgCl2, 50 mM Tris-HCl (pH 7.5), 0.5% Nonidet P-40 (Roche), 1 mM dithioretitol (DTT) (Sigma), containing one protease inhibitor tablet and one phosphatase inhibitor tablet (both from Roche) per each 10 ml of buffer]. The lysates were subjected to centrifugation (Spectrafuge 24D, Labnet) at 1,000×g for 5 min at 4° C. The supernatant (cytoplasmic fraction) was transferred to a fresh Eppendorf tube. The pellet (nuclear fraction) was washed three times in buffer A before being dissolved in buffer B [2% SDS, 150 mM NaCl, 65 mM Tris-HCl (pH 8.0)] and sonicated for 30 sec. Finally, the lysates were subjected to western blot analysis. The blots were probed with antibodies against GAPDH (rabbit polyclonal, 1:5000) and Lamin A/C (rabbit polyclonal, 1:1000, Gene Tex, Calif., United States of America) to confirm fraction purity and equal protein loading.

[5] = test system: α-tubulin K40 and histone H3 acetylation; experiment: Acetylation of SIRT2 substrates in wild type primary cortical neurons; format: cell-based, mouse; parameters: α-Tubulin acetylation: dose or concentration left out as unconfirmed; settings: primary neurons
Protocol: as §1
Based upon the robust neuroprotection observed in HD model systems expressing both mutant HTT fragments and full-length mutant HTT, verification of the bioactivity of MIND4 as SIRT2 inhibitor in primary neurons was sought. […]

Sequence of human recombinant SIRT2 deacetylase (Q8IXJ6 whole entry): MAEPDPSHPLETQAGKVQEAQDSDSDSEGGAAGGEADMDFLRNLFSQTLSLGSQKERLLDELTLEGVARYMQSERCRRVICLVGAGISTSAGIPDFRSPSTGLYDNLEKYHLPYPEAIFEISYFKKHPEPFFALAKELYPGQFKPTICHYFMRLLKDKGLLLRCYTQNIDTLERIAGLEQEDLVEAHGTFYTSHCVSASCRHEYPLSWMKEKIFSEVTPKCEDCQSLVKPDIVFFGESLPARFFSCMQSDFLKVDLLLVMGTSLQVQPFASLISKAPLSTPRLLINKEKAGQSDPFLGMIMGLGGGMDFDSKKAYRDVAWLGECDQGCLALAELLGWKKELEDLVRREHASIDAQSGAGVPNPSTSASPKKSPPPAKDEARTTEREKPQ

Row | SMILES | IC50 ([1]; Table 3) [µM] | EC (2-fold NQO1 activity) [2] [µM] | IC50 ([1]; Table 1) [µM] | further results
1 | O=[N+]([O-])c1ccc(Sc2nnc(COc3ccccc3)[nH]2)nc1 [MIND4-17-3] | > 50 | 7.5 | – | –
2 | O=[N+]([O-])c1ccc(Sc2nnc(-c3ccc(Cl)cc3)n2-c2ccccc2)nc1 [MIND4-17-33] | 7.5 | 0.3 | – | Effect of GSH pre-incubation on NQO1 inducer potency [2]: significantly affected by pre-incubation with GSH; CD value (Concentration which Doubles the specific activity of NQO1) [2]: 0.3 µM; Induction of NRF2-responsive proteins NQO1 and GCLM [3]: potent induction of NQO1 protein
3 | COC(=O)/C=C/C(=O)OC [dimethyl fumarate, reference compound] | – | – | – | CD value (Concentration which Doubles the specific activity of NQO1) [2]: 9 µM; Induction of NRF2-responsive proteins NQO1 and GCLM [3]: dose-dependent induction of NQO1 protein
4 | c1ccc(CSc2nnc(COc3cccc4ccccc34)n2Cc2ccccc2)cc1 [MIND4-22] | – | – | 6 | –
5 | O=[N+]([O-])c1ccc(Sc2nnc(-c3ccccc3)n2-c2ccccc2)c2ncccc12 [MIND4A] | 7.5 | 1 | – | SIRT2 inhibition ([1]; dose-response): lower potency of SIRT2 inhibition; Effect of GSH pre-incubation on NQO1 inducer potency [2]: much more modest; CD value (Concentration which Doubles the specific activity of NQO1) [2]: 1 µM; Induction of NRF2-responsive proteins NQO1 and GCLM [3]: higher potency induction
6 | C[S+]([O-])CCCCN=C=S (stereo not drawn) [sulforaphane, reference compound] | – | – | – | CD value (Concentration which Doubles the specific activity of NQO1) [2]: 0.18 µM; Accumulation of total NRF2 protein [4]: readily detectable
7 | COc1ccc(CSc2nnc(COc3cccc4ccccc34)n2Cc2ccccc2)cc1 [MIND4-23] | – | – | 9 | –
8 | c1ccc(CSc2nnc(COc3ccccc3)n2-c2ccccc2)cc1 [MIND4-19] | – | – | 7 | –
9 | O=[N+]([O-])c1ccc(Sc2nnc(COc3ccccc3)n2-c2ccccc2)c2cccnc12 [MIND4C] | > 20 | 5 | – | Induction of NRF2-responsive proteins NQO1 and GCLM [3]: weaker activation; Accumulation of total NRF2 protein [4]: to much lesser extent
10 | O=[N+]([O-])c1ccc(CSc2nnc(COc3ccccc3)n2-c2ccccc2)cc1 [MIND4-21] | 10 | – | 10 | –
11 | Cn1cnnc1Sc1ccc([N+](=O)[O-])c2cccnc12 [MIND4B] | > 50 | 2 | – | –
12 | c1ccc(CSc2nnc(COc3cccc4ccccc34)n2-c2ccccc2)cc1 [MIND4-11] | 4.5 | > 10 | 4.5 | –
13 | O=[N+]([O-])c1ccc(Sc2nnc(Cc3ccccc3)n2-c2ccccc2)nc1 [MIND4-17-15] | > 50 | 0.3 | – | –
14 | c1ccc(CSc2nnc(COc3cccc4cccnc34)n2-c2ccccc2)cc1 [MIND4-12] | – | – | 9 | –
15 | Brc1cccc(CSc2nnc(COc3ccccc3)n2-c2ccccc2)c1 [MIND4-20] | – | – | 5 | –
16 | O=C(CCCCCCC(=O)Nc1ccc([C@H]2O[C@@H](CSc3nc(-c4ccccc4)c(-c4ccccc4)o3)C[C@@H](c3ccc(CO)cc3)O2)cc1)NO [tubacin, reference compound] | – | – | – | α-Tubulin acetylation [5]: significantly increased α-tubulin acetylation
17 | O=[N+]([O-])c1cnc(Sc2nnc(-c3ccc(Cl)cc3)n2-c2ccccc2)c(Br)c1 [MIND4-17-56] | 0.75 | 2.5 | – | Effect of GSH pre-incubation on NQO1 inducer potency [2]: much more modest; CD value (Concentration which Doubles the specific activity of NQO1) [2]: 2.5 µM; Induction of NRF2-responsive proteins NQO1 and GCLM [3]: lower potency in its ability to induce NQO1
18 | Clc1ccc(-n2c(COc3cccc4ccccc34)nnc2SCc2ccccc2)cc1 [MIND4-2] | – | – | 12 | –
